Experimental data as given in PubChem BioAssay (NCI).
Where “and” joins values, the source holds several entries; their conditions need not be identical. Identical values can stand only once.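 Cells were grown in 96-well plates and exposed to each compound for 48 hours at five concentrations; endpoints were interpolated linearly between bracketing concentrations, or set to the highest concentration if not reached. GI50 marks 50% less growth. TGI denotes the concentration required for complete inhibition of growth.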

What was measured:
Test in all cases: DTP human tumour cell line panel, 48 h
SNB-75 CNS = test system: SNB-75 CNS
BT-549 breast = test system: BT-549 breast
786-0 renal = test system: 786-0 renal
SW-620 colon = test system: SW-620 colon
HCT-15 colon = test system: HCT-15 colon
RPMI-8226 leukemia = test system: RPMI-8226 leukemia
HOP-62 NSCLC = test system: HOP-62 NSCLC
OVCAR-3 ovarian = test system: OVCAR-3 ovarian
SN12C renal = test system: SN12C renal
HL-60(TB) leukemia = test system: HL-60(TB) leukemia

SMILES	GI50 (SNB-75 CNS)	TGI (SNB-75 CNS)	GI50 (BT-549 breast)	TGI (BT-549 breast)	GI50 (786-0 renal)	TGI (786-0 renal)	GI50 (SW-620 colon)	TGI (SW-620 colon)	GI50 (HCT-15 colon)	TGI (HCT-15 colon)	GI50 (RPMI-8226 leukemia)	TGI (RPMI-8226 leukemia)	GI50 (HOP-62 NSCLC)	TGI (HOP-62 NSCLC)	GI50 (OVCAR-3 ovarian)	TGI (OVCAR-3 ovarian)	GI50 (SN12C renal)	TGI (SN12C renal)	GI50 (HL-60(TB) leukemia)	TGI (HL-60(TB) leukemia)
CC1=C(C(=O)Nc2ccc(F)c(Cl)c2)C(c2cccc(O)c2)NC(=S)N1 (stereo unspecified)	14.4 µM	41.3 µM	12.1 µM	36.8 µM	19.1 µM	> 50 µM	20.6 µM	> 50 µM	47.8 µM	> 50 µM	30.1 µM	> 50 µM	> 50 µM	> 50 µM	17.9 µM	> 50 µM	12.7 µM	39.2 µM	25.8 µM	> 50 µM
CS(=O)(=O)c1ccc(Oc2nccc(-c3c(-c4ccc(F)cc4)ncn3C3CCNCC3)n2)cc1	> 25 µM	> 25 µM	> 25 µM	> 25 µM	> 25 µM	> 25 µM	> 25 µM	> 25 µM	> 25 µM	> 25 µM	> 25 µM	> 25 µM	> 25 µM	> 25 µM	> 25 µM	> 25 µM	> 25 µM	> 25 µM	> 20.6 µM	> 25 µM
COc1ccc(-n2c(-c3ccc(NC(=O)CCCl)cc3)nnc2-c2cc(OC)c(OC)c(OC)c2)cc1	3.46 µM	> 14.3 µM	3.14 µM	13.8 µM	12.5 µM	> 14.3 µM	4.55 µM	> 14.3 µM	3.68 µM	> 14.3 µM	2.85 µM	8.49 µM	3.49 µM	13.4 µM	2.58 µM	7.78 µM	7.33 µM	> 14.3 µM	1.9 µM	6.02 µM
COc1cccc2c(Nc3ccc(C(=O)NCCNCCO)cc3)cc(-c3ccccc3)nc12		34.9 µM	37.3 µM	> 100 µM	33.5 µM	> 100 µM	37.7 µM	> 100 µM	12.2 µM	> 100 µM	24.5 µM	60.3 µM	35.4 µM	> 100 µM	39.2 µM	> 100 µM	34.3 µM	> 100 µM	26.6 µM	99.2 µM
Cc1c2ncccc2c(C)c2c1[nH]c1ccc(O)cc12	7.45 µM and 15.2 µM			29.3 µM	5.25 µM	15.6 µM and 11.6 µM	7.83 µM	39.9 µM	6.16 µM and 6.53 µM	17.6 µM and 40 µM	3.07 µM	8.78 µM and 15.4 µM	4.01 µM and 5.07 µM	10.8 µM and 59.5 µM	4.01 µM	20 µM	5.99 µM and 5.39 µM	14.2 µM and 42.5 µM	3.84 µM and 4.76 µM	10.5 µM and 15 µM
Cc1ccc2c(/C=C/C(=O)c3cc(CN4CCOCC4)c(O)c4nc(C)ccc34)cc(CN3CCOCC3)c(O)c2n1	0.938 µM	16.6 µM	1.22 µM	4.7 µM	1.4 µM	5.45 µM	0.485 µM	2.4 µM	0.223 µM	3.33 µM	0.489 µM	3.86 µM	0.739 µM	11.8 µM	0.875 µM	4.6 µM	0.683 µM	12.4 µM	0.272 µM	0.677 µM
CC(C)(C)[Si](C)(C)OC1[C@@H](O[Si](C)(C)C(C)(C)C)[C@@H](CNC(=O)NC(=O)NC(=O)CI)O[C@H]1n1cnc2c(NC(=O)Nc3ccccc3)ncnc21 (stereo partly specified)	0.651 µM	3.17 µM	6.89 µM	13.9 µM	0.357 µM	1.08 µM	3.38 µM	12.6 µM	9.81 µM	31.8 µM	0.285 µM	1.76 µM	0.392 µM	1.28 µM	0.215 µM	0.62 µM	6.49 µM	15.6 µM	0.0845 µM	0.166 µM
OCc1ccc(N(Cc2ccc(F)cc2)C2CCC2)cc1Cl	12.2 µM	24.8 µM	17.7 µM	32.8 µM	10.3 µM	24.3 µM	0.744 µM	16.8 µM	10.9 µM	25.7 µM	3.03 µM	25.4 µM	2.05 µM	17.5 µM	0.403 µM	2.05 µM	11.8 µM	24.4 µM	5.7 µM	25.5 µM
CC1/C=C/C=C/CC/C=C/C=C/C=C/C=C/C(OC2OC(C)C(O)C(N)C2O)CC2OC(CC(O)C(O)CCC(O)CC(O)CC(O)CC(=O)OC(C)C(C)C1O)CC(O)C2C(=O)O (stereo unspecified)	58.2 µg/mL	40.6 µM and 150 µg/mL	38.8 µg/mL	34.6 µM and 116 µg/mL	25.8 µg/mL	31.3 µM and 50.1 µg/mL	25.4 µg/mL	42.2 µM and 46 µg/mL	43.8 µg/mL	82.2 µM and 150 µg/mL	150 µg/mL	45.2 µM and 150 µg/mL	25.4 µg/mL	35.8 µM and 55.3 µg/mL	101 µg/mL	37.2 µM and 150 µg/mL	23.4 µg/mL	30.3 µM and 43.8 µg/mL		45.1 µM
COc1ccc(C(=O)c2cc(OC)c(OC)c(OC)c2)cc1/C=C/C(=O)c1ccc(O)cc1	1.62 µM	4.77 µM	2.02 µM	5.32 µM	1.66 µM	3.74 µM	2.51 µM	10.2 µM	2.15 µM	7.42 µM	1.56 µM	82.9 µM	21.1 µM	53.4 µM	3 µM	8.47 µM	2.66 µM	12.6 µM	0.693 µM	> 100 µM
CCOC(=O)c1sc2ncn(Cc3cccc(Cl)c3)c(=O)c2c1C	16.4 µM	29.9 µM	17.2 µM	30.9 µM	13.1 µM	25.7 µM	18.1 µM	32 µM	14.1 µM	27 µM	5.58 µM	18.4 µM	12 µM	24.4 µM	12.6 µM	25.1 µM	15.3 µM	28.6 µM	18 µM	31.9 µM
COc1ccc2c(CN3CCC(CO)CC3)cc3cc4c(cc3c2c1)OCO4	0.474 µM	2 µM	0.6 µM	3.87 µM	0.227 µM	4.65 µM	0.141 µM	11 µM	0.17 µM	3.49 µM	0.256 µM	0.919 µM	0.272 µM	2.03 µM	0.316 µM	3.39 µM	0.247 µM	4.37 µM	0.286 µM	1.72 µM
O=C(Nc1ncc([N+](=O)[O-])s1)c1cccc([N+](=O)[O-])c1	10.7 µM	88 µM	2.78 µM	11 µM	2.57 µM	> 92 µM	6.04 µM	> 100 µM	6.11 µM	> 100 µM	1.43 µM	5.41 µM	3.75 µM	> 40.9 µM	3.18 µM	> 100 µM	2.73 µM	> 53.3 µM	2.35 µM	8.27 µM
CCN(Cc1ccc(F)cc1F)c1ccc(CO)c(Cl)c1	12.8 µM	45.3 µM	14.3 µM	34.8 µM	5.91 µM	29 µM	0.917 µM	> 45.6 µM	11.2 µM	30.5 µM	2.96 µM	32 µM	1.84 µM	20.2 µM	0.389 µM	2.07 µM	11.2 µM	23.8 µM	8.47 µM	38.1 µM
